Results from ChEMBL document CHEMBL1130531, “A new series of selective dopamine D4 ligands: 3-([4-arylpiperazin-1-yl]alkylamino)-2H-1,4-benzoxazines” (Bioorg Med Chem Lett, 1997).
pKi: −log10 of the molar value.

How the values were obtained:
Format in all cases: cell-based
D(2) dopamine receptor = D(2) dopamine receptor (Homo sapiens, UniProt P14416); assay: Binding affinity at cloned human D2 dopamine receptor in CHO cells using [3H]-YM 09151 as radioligand
D(3) dopamine receptor = D(3) dopamine receptor (Homo sapiens, UniProt P35462); assay: Binding affinity at cloned human D3 dopamine receptor in CHO cells using [3H]-YM 09151 as radioligand
Chain of D(3) dopamine receptor (P35462 whole entry): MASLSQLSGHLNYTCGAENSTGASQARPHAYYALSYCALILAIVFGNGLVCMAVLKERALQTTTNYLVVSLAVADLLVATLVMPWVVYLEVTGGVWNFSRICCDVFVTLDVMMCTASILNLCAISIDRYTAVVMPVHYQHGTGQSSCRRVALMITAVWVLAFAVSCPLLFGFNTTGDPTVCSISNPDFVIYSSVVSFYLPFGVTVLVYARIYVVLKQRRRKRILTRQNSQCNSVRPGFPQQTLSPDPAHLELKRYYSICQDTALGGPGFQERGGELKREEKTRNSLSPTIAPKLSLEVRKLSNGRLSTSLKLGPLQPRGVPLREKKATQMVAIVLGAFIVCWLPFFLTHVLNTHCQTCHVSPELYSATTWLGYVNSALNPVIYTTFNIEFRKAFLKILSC

D(4) dopamine receptor = target: T1, D(4) dopamine receptor (Homo sapiens, UniProt P21917); assay: Binding affinity at cloned human D4 dopamine receptor in CHO cells using [3H]-YM 09151 as radioligand
T1 sequence (P21917 whole entry): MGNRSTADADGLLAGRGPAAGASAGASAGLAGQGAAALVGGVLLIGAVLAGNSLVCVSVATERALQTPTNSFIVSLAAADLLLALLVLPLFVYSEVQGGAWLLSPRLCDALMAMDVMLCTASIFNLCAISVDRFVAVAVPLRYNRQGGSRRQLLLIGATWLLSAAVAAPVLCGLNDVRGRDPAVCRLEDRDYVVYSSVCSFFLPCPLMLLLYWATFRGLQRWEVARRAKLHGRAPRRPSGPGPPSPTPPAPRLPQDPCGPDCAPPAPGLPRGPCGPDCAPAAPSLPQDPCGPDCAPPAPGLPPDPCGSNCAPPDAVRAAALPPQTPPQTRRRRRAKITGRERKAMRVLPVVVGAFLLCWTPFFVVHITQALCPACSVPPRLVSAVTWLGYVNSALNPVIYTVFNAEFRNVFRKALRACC

Chain of D(2) dopamine receptor (P14416 whole entry): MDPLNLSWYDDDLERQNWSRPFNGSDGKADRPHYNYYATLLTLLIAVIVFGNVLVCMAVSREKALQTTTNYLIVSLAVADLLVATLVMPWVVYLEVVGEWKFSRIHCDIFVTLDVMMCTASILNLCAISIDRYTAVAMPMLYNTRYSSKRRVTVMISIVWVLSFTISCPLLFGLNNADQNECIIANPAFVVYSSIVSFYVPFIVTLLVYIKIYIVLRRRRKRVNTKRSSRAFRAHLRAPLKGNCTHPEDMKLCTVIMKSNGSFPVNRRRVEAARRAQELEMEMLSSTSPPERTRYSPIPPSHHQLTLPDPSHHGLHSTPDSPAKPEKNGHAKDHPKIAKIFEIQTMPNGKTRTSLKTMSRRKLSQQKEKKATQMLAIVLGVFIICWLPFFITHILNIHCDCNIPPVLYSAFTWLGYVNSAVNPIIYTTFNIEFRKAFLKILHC

| pKi (D(2) dopamine receptor) | pKi (D(3) dopamine receptor) | pKi (D(4) dopamine receptor) | SMILES |
| --- | --- | --- | --- |
| 6.55 | < 6.00 | 8.52 | COc1ccccc1N1CCN(CCCNC2=Nc3ccccc3OC2)CC1 |
|  |  | 6.90 | c1ccc2c(c1)N=C(NCCCCCN1CCN(c3ccc4ccccc4n3)CC1)CO2 |
